Experiments:
[1] = target: BMP-2-inducible protein kinase (Homo sapiens) (UniProt Q9NSY1); experiment: Inhibition of wild-type human partial length BIKE (S34 to N329 residues) expressed in bacterial expression system assessed as residual activity at 1 uM by Kinomescan method relative to control
[2] = target: Proto-oncogene tyrosine-protein kinase receptor Ret (Homo sapiens) (UniProt P07949); experiment: Inhibition of wild-type human partial length RET (E713 to D1014 residues) expressed in bacterial expression system assessed as residual activity at 1 uM by Kinomescan method relative to control
[3] = target: Tyrosine-protein kinase Fyn (Homo sapiens) (UniProt P06241); experiment: Inhibition of wild-type human partial length FYN (T243 to L534 residues) expressed in bacterial expression system assessed as residual activity at 1 uM by Kinomescan method relative to control
[4] = target: Serine/threonine-protein kinase PAK 6 (Homo sapiens) (UniProt Q9NQU5); experiment: Inhibition of wild-type human partial length PAK6 (N298 to C681 residues) expressed in bacterial expression system assessed as residual activity at 1 uM by Kinomescan method relative to control
[5] = target: Cyclin-dependent kinase 18 (Homo sapiens) (UniProt Q07002); experiment: Inhibition of wild-type human full length PCTK3 (M3 to F474 residues) expressed in bacterial expression system assessed as residual activity at 1 uM by Kinomescan method relative to control
[6] = target: Serine/threonine-protein kinase TAO1 (Homo sapiens) (UniProt Q7L7X3); experiment: Inhibition of wild-type human partial length TAOK1 (M1 to A320 residues) expressed in mammalian expression system assessed as residual activity at 1 uM by Kinomescan method relative to control
[7] = target: Serine/threonine-protein kinase 17A (Homo sapiens) (UniProt Q9UEE5); experiment: Inhibition of wild-type human partial length DRAK1 (R32 to E363 residues) expressed in bacterial expression system assessed as residual activity at 1 uM by Kinomescan method relative to control
[8] = target: Cyclin-dependent kinase-like 1 (Homo sapiens) (UniProt Q00532); experiment: Inhibition of wild-type human full length CDKL1 (M1 to I358 residues) expressed in mammalian expression system assessed as residual activity at 1 uM by Kinomescan method relative to control
[9] = target: Serine/threonine-protein kinase PAK 4 (Homo sapiens) (UniProt O96013); experiment: Inhibition of wild-type human partial length PAK4 (Q144 to R438 residues) expressed in bacterial expression system assessed as residual activity at 1 uM by Kinomescan method relative to control
[10] = target: RAC-alpha serine/threonine-protein kinase (Homo sapiens) (UniProt P31749); experiment: Inhibition of wild-type human partial length AKT1 expressed in bacterial expression system assessed as residual activity at 1 uM by Kinomescan method relative to control
[11] = AUC (0 to t) in Sprague-Dawley rat at 10 mg/kg, po by LC-MS/MS method; type: ADME, organism-based; details: in vivo
[12] = system: Epidermal growth factor receptor (Homo sapiens), P00533 [UNDEFINED MUTATION]; experiment: Inhibition of human partial length EGFR L747-E749del/A750P mutant expressed in bacterial expression system assessed as residual activity at 1 uM by Kinomescan method relative to control
[13] = target: Serine/threonine-protein kinase 32C (Homo sapiens) (UniProt Q86UX6); experiment: Inhibition of wild-type human partial length YANK3 (M68 to G486 residues) expressed in bacterial expression system assessed as residual activity at 1 uM by Kinomescan method relative to control
U2932 = experiment: Cell cycle arrest in human U2932 cells assessed as increase in accumulation at G0/G1 phase after 48 hrs by propidium iodide/RNase staining based flow cytometric method; type: functional
[14] = system: Epidermal growth factor receptor (Homo sapiens), P00533 [UNDEFINED MUTATION]; experiment: Inhibition of human partial length EGFR E746-A750del mutant expressed in bacterial expression system assessed as residual activity at 1 uM by Kinomescan method relative to control
[15] = target: Dual specificity protein kinase CLK4 (Homo sapiens) (UniProt Q9HAZ1); experiment: Inhibition of wild-type human partial length CLK4 (R135 to K481 residues) expressed in bacterial expression system assessed as residual activity at 1 uM by Kinomescan method relative to control
[16] = target: High affinity nerve growth factor receptor (Homo sapiens) (UniProt P04629); experiment: Inhibition of wild-type human partial length TRKA (G475 to G790 residues) expressed in mammalian expression system assessed as residual activity at 1 uM by Kinomescan method relative to control
[17] = target: Dual specificity mitogen-activated protein kinase kinase 5 (Homo sapiens) (UniProt Q13163); experiment: Inhibition of wild-type human partial length MEK5 (L98 to P448 residues) expressed in mammalian expression system assessed as residual activity at 1 uM by Kinomescan method relative to control
[18] = target: Tyrosine-protein kinase BTK (Homo sapiens, UniProt Q06187); experiment: Reversible inhibition of full length recombinant human N-terminal His tagged […] expressed in baculovirus infected Sf9 insect cells using poly (Glu,Tyr)4:1 as substrate pretreated for 2 to 60 mins followed by substrate addition after 1 hr by ADP-Glo luminescence assay
[19] = target: Serine/threonine-protein kinase 32B (Homo sapiens) (UniProt Q9NY57); experiment: Inhibition of wild-type human full length YANK2 (M1 to S414 residues) expressed in bacterial expression system assessed as residual activity at 1 uM by Kinomescan method relative to control
[20] = Cmax in Sprague-Dawley rat at 1 mg/kg, iv by LC-MS/MS method; type: ADME, organism-based; design: dose 1 mg/kg, route intravenous; details: in vivo
[21] = target: Microtubule-associated serine/threonine-protein kinase 1 (Homo sapiens) (UniProt Q9Y2H9); experiment: Inhibition of wild-type human partial length MAST1 (S346 to V730 residues) expressed in mammalian expression system assessed as residual activity at 1 uM by Kinomescan method relative to control
[22] = target: Homeodomain-interacting protein kinase 1 (Homo sapiens) (UniProt Q86Z02); experiment: Inhibition of wild-type human partial length HIPK1 (M146 to I555 residues) expressed in mammalian expression system assessed as residual activity at 1 uM by Kinomescan method relative to control
[23] = target: Interleukin-1 receptor-associated kinase 1 (Homo sapiens) (UniProt P51617); experiment: Inhibition of wild-type human partial length IRAK1 (R194 to S712 residues) expressed in mammalian expression system assessed as residual activity at 1 uM by Kinomescan method relative to control
[24] = target: Serine/threonine-protein kinase N1 (Homo sapiens) (UniProt Q16512); experiment: Inhibition of wild-type human partial length PKN1 (E598 to C948 residues) expressed in bacterial expression system assessed as residual activity at 1 uM by Kinomescan method relative to control
[25] = target: Dual specificity tyrosine-phosphorylation-regulated kinase 1B (Homo sapiens) (UniProt Q9Y463); experiment: Inhibition of wild-type human full length DYRK1B (M1 to S629 residues) expressed in bacterial expression system assessed as residual activity at 1 uM by Kinomescan method relative to control
[26] = target: Cyclin-dependent kinase 14 (Homo sapiens) (UniProt O94921); experiment: Inhibition of wild-type human full length PFTK1 (M1 to H451 residues) expressed in bacterial expression system assessed as residual activity at 1 uM by Kinomescan method relative to control
Cyclin-dependent kinase 14 (Homo sapiens), sequence (O94921 whole entry, the tested form may be a part): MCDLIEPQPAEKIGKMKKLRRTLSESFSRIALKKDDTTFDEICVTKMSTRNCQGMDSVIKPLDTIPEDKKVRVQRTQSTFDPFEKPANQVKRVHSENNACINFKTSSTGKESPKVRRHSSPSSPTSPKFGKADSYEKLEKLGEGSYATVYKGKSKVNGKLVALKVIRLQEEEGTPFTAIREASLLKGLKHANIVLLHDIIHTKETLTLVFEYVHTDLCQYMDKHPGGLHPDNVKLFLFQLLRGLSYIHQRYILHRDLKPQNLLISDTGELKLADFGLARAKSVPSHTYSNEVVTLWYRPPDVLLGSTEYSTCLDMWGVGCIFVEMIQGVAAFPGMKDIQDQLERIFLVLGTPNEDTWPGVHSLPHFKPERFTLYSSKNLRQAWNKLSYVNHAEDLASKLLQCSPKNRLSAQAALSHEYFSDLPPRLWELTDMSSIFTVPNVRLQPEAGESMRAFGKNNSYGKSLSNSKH

Epidermal growth factor receptor (Homo sapiens), P00533 [UNDEFINED MUTATION], sequence (P00533 whole entry, looked up, stated change not applied, the tested form may be a part): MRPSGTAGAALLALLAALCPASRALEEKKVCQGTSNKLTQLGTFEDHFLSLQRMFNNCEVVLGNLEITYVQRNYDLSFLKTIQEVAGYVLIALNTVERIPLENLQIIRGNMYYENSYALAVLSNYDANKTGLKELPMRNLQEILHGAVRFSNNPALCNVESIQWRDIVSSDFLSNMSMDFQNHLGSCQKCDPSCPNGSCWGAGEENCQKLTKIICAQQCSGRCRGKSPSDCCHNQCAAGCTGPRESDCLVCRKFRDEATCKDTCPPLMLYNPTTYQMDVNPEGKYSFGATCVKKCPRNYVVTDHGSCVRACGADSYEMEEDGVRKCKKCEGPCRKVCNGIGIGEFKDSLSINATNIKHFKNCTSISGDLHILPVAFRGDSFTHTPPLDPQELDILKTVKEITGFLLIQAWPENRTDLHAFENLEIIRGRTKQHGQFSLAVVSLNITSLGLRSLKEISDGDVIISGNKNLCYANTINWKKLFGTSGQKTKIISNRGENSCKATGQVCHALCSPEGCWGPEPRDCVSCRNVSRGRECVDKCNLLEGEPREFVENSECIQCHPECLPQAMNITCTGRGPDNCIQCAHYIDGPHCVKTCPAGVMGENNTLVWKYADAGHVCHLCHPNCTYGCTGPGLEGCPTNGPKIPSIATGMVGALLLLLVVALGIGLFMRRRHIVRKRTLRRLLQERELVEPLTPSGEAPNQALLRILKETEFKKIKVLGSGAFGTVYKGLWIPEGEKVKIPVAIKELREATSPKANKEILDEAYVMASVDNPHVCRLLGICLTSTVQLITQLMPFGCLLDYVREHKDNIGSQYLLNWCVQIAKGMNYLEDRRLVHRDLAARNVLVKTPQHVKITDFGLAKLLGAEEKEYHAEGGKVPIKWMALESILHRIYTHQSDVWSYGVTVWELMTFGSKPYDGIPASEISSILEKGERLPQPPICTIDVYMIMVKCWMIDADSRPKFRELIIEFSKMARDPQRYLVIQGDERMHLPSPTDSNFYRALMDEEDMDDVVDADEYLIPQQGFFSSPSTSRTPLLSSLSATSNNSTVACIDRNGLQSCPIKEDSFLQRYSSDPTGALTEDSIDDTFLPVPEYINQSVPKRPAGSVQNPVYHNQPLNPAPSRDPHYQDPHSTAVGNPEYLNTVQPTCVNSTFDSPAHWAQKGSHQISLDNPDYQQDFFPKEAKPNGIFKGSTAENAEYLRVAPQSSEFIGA
Dual specificity tyrosine-phosphorylation-regulated kinase 1B (Homo sapiens), sequence (Q9Y463 whole entry, looked up, the tested form may be a part): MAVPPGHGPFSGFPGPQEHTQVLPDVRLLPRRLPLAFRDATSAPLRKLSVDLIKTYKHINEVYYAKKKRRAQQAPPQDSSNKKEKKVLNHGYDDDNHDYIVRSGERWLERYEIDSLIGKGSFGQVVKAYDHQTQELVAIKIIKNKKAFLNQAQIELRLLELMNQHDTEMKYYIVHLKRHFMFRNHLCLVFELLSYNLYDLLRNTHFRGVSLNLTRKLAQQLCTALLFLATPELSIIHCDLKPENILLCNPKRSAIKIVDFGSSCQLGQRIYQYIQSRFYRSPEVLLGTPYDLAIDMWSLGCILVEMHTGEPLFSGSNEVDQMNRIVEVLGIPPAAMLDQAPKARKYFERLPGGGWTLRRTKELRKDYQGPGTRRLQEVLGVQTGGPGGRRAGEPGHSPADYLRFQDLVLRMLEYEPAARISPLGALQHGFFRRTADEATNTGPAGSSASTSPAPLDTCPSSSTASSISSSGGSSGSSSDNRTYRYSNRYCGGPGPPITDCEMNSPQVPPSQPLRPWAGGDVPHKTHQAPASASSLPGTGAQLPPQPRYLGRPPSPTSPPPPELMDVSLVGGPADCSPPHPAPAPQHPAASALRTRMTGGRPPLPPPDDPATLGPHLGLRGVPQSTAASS
Interleukin-1 receptor-associated kinase 1 (Homo sapiens), sequence (P51617 whole entry, looked up, the tested form may be a part): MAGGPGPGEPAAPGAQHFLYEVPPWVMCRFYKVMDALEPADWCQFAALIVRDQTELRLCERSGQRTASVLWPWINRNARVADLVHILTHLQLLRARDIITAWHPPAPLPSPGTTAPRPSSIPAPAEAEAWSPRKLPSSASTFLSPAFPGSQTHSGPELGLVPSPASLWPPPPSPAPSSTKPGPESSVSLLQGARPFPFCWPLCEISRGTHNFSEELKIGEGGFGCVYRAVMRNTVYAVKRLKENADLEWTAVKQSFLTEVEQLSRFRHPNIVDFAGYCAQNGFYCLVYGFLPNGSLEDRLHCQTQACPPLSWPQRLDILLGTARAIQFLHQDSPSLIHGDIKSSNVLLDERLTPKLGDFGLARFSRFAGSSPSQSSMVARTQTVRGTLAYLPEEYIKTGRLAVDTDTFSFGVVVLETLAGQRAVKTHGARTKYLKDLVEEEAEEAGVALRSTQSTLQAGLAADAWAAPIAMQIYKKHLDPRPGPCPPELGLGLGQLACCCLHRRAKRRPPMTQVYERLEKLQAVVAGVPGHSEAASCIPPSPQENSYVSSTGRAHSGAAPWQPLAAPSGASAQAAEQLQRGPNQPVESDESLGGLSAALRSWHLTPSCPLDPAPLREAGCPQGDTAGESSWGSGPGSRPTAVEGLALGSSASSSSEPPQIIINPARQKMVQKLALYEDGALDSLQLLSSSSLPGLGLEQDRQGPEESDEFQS
Dual specificity mitogen-activated protein kinase kinase 5 (Homo sapiens), sequence (Q13163 whole entry, the tested form may be a part): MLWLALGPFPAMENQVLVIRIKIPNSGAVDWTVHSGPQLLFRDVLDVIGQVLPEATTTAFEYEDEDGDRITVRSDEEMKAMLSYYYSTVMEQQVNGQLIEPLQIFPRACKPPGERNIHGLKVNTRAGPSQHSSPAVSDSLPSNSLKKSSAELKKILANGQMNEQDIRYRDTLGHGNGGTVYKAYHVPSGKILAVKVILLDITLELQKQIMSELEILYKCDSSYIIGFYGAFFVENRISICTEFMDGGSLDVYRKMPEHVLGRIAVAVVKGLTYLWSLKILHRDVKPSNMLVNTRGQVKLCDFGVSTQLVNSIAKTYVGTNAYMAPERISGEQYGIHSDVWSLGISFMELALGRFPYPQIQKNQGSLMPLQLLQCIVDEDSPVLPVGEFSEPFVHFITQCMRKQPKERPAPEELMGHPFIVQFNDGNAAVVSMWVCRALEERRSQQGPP
Serine/threonine-protein kinase 17A (Homo sapiens), sequence (Q9UEE5 whole entry, the tested form may be a part): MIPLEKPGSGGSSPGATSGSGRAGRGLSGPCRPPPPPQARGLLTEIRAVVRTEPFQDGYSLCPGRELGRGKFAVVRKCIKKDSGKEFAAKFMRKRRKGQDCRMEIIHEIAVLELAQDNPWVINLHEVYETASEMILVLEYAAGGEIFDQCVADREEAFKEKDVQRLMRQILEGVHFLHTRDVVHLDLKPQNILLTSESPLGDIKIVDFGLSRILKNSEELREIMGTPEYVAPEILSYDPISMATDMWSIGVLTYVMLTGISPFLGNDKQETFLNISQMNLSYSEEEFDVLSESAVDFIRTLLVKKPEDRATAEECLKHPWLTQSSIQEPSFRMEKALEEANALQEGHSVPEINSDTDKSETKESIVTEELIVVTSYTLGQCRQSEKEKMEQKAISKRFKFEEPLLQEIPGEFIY
Tyrosine-protein kinase Fyn (Homo sapiens), sequence (P06241 2-537 limits assumed): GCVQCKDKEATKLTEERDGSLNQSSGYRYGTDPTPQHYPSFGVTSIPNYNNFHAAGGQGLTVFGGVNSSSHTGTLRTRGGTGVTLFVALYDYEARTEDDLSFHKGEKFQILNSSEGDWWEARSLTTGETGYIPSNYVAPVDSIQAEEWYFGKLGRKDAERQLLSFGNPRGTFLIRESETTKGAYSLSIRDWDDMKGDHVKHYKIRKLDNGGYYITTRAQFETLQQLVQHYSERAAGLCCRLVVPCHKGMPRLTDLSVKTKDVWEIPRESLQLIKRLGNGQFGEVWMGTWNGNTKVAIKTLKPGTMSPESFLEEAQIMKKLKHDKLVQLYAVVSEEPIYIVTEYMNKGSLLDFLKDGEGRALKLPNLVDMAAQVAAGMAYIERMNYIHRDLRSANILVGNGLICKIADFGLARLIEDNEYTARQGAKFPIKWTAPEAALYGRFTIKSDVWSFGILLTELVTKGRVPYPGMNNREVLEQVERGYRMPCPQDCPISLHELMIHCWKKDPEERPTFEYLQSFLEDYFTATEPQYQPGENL
Cyclin-dependent kinase-like 1 (Homo sapiens), sequence (Q00532 whole entry, the tested form may be a part): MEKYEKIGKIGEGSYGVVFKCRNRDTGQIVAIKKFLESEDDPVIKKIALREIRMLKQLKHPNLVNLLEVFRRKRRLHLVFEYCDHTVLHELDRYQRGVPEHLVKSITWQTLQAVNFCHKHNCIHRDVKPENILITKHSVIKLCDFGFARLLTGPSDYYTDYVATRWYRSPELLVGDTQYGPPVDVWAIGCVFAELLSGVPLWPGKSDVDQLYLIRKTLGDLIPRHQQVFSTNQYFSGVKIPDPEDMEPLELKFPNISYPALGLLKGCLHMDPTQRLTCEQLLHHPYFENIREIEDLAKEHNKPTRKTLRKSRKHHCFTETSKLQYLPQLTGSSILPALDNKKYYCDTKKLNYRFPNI

C=CC(=O)Nc1cc(Nc2cc(-c3cccc(NC(=O)c4ccc(C(C)(C)C)cc4)c3C)cn(C)c2=O)ccc1C(=O)N1CCOCC1
Activity [1]: 94%
Activity [2]: 87%
Activity [3]: 73%
Activity [4]: 100%
Activity [5]: 98%
Activity [6]: 100%
Activity [7]: 82%
Activity [8]: 100%
Activity [9]: 94%
Activity [10]: 100%
AUC(0-t) [11]: 0.022 µg·h/mL
Activity [12]: 94%
Activity [13]: 97%
Activity (U2932): Dose-dependent effect
Activity [14]: 80%
Activity [15]: 90%
Activity [16]: 91%
Activity [17]: 98%
Ki [18]: 8.9 nM
Activity [19]: 100%
Cmax [20]: 0.897 µg/mL
Activity [21]: 98%
Activity [22]: 100%
Activity [23]: 100%
Activity [24]: 100%
Activity [25]: 74%
Activity [26]: 93%

Source: ChEMBL document CHEMBL4024706 (Eur J Med Chem, 2017)
